According to PubChem BioAssay (NCI):
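Exposure lasted 48 hours, with cells grown in 96-well plates and compounds tested at five concentrations. TGI: concentration producing complete growth inhibition.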

Assays:
Assay in all cases: growth of human tumour cells (NCI), 48 h
COLO 205 colon = test system: COLO 205 colon
TK-10 renal = test system: TK-10 renal
SK-MEL-5 melanoma = test system: SK-MEL-5 melanoma
HCC-2998 colon = test system: HCC-2998 colon
A498 renal = test system: A498 renal
HT29 colon = test system: HT29 colon
OVCAR-3 ovarian = test system: OVCAR-3 ovarian
SK-MEL-2 melanoma = test system: SK-MEL-2 melanoma
CAKI-1 renal = test system: CAKI-1 renal
SK-MEL-28 melanoma = test system: SK-MEL-28 melanoma
SF-295 CNS = test system: SF-295 CNS
KM12 colon = test system: KM12 colon
UO-31 renal = test system: UO-31 renal
SNB-78 CNS = test system: SNB-78 CNS
NCI-H226 lung = test system: NCI-H226 lung
OVCAR-4 ovarian = test system: OVCAR-4 ovarian
UACC-62 melanoma = test system: UACC-62 melanoma
MOLT-4 leukemia = test system: MOLT-4 leukemia
NCI-H460 lung = test system: NCI-H460 lung
EKVX NSCLC = test system: EKVX NSCLC
UACC-257 melanoma = test system: UACC-257 melanoma
HOP-62 NSCLC = test system: HOP-62 NSCLC
HL-60(TB) leukemia = test system: HL-60(TB) leukemia
SF-268 CNS = test system: SF-268 CNS
MALME-3M melanoma = test system: MALME-3M melanoma
HCT-116 colon = test system: HCT-116 colon
SK-OV-3 ovarian = test system: SK-OV-3 ovarian
OVCAR-8 ovarian = test system: OVCAR-8 ovarian
NCI-H23 lung = test system: NCI-H23 lung
HOP-18 NSCLC = test system: HOP-18 NSCLC
K-562 leukemia = test system: K-562 leukemia
SW-620 colon = test system: SW-620 colon
ACHN renal = test system: ACHN renal
LOX IMVI melanoma = test system: LOX IMVI melanoma
786-0 renal = test system: 786-0 renal
LXFL 529 NSCLC = test system: LXFL 529 NSCLC
SF-539 CNS = test system: SF-539 CNS
M19-MEL melanoma = test system: M19-MEL melanoma
RPMI-8226 leukemia = test system: RPMI-8226 leukemia
SNB-19 CNS = test system: SNB-19 CNS
CCRF-CEM leukemia = test system: CCRF-CEM leukemia
RXF 393 renal = test system: RXF 393 renal
SNB-75 CNS = test system: SNB-75 CNS
NCI-H522 lung = test system: NCI-H522 lung
DMS 273 small cell lung = test system: DMS 273 small cell lung
SN12C renal = test system: SN12C renal
XF 498 CNS = test system: XF 498 CNS
IGROV1 ovarian = test system: IGROV1 ovarian
SR leukemia = test system: SR leukemia
U251 CNS = test system: U251 CNS
OVCAR-5 ovarian = test system: OVCAR-5 ovarian
DLD-1 colon = test system: DLD-1 colon
M14 melanoma = test system: M14 melanoma
HCT-15 colon = test system: HCT-15 colon
RXF-631 renal = test system: RXF-631 renal
KM20L2 colon = test system: KM20L2 colon
A549 NSCLC = test system: A549 NSCLC
DMS 114 small cell lung = test system: DMS 114 small cell lung
HOP-92 NSCLC = test system: HOP-92 NSCLC

Measured: TGI

CC(C)(C)N/N=C(\C(=O)Nc1nc(=S)[nH][nH]1)C1C(=O)Nc2ccccc2S1=O (centres undefined)
> 100 µM: COLO 205 colon | TK-10 renal | SK-MEL-5 melanoma | HCC-2998 colon | A498 renal | HT29 colon | OVCAR-3 ovarian | SK-MEL-2 melanoma | CAKI-1 renal | SK-MEL-28 melanoma | SF-295 CNS | KM12 colon | UO-31 renal | SNB-78 CNS | NCI-H226 lung | OVCAR-4 ovarian | UACC-62 melanoma | MOLT-4 leukemia | NCI-H460 lung | EKVX NSCLC | UACC-257 melanoma | HOP-62 NSCLC | HL-60(TB) leukemia | SF-268 CNS | MALME-3M melanoma | HCT-116 colon | SK-OV-3 ovarian | OVCAR-8 ovarian | NCI-H23 lung | HOP-18 NSCLC | K-562 leukemia | SW-620 colon | ACHN renal | LOX IMVI melanoma | 786-0 renal | LXFL 529 NSCLC | SF-539 CNS | M19-MEL melanoma | RPMI-8226 leukemia | SNB-19 CNS | CCRF-CEM leukemia | RXF 393 renal | SNB-75 CNS | NCI-H522 lung | DMS 273 small cell lung | SN12C renal | XF 498 CNS | IGROV1 ovarian | SR leukemia | U251 CNS | OVCAR-5 ovarian | DLD-1 colon | M14 melanoma | HCT-15 colon | RXF-631 renal | KM20L2 colon | A549 NSCLC | DMS 114 small cell lung

COC(=O)C1CC(OC(C)=O)C=C2C(=O)CCC21 (centres undefined)
3.75 µM: NCI-H522 lung
33.8 µM: SK-MEL-28 melanoma
48 µM: SNB-75 CNS
80.3 µM: UO-31 renal
80.9 µM: U251 CNS
38.8 µM: SF-268 CNS
59.9 µM: M19-MEL melanoma
72.8 µM: SNB-78 CNS
40.7 µM: DLD-1 colon
45.1 µM: OVCAR-4 ovarian
37 µM: UACC-257 melanoma
30.9 µM: HCT-15 colon
79.9 µM: SK-MEL-2 melanoma
39.4 µM: SW-620 colon
64.3 µM: HOP-18 NSCLC
46.3 µM: ACHN renal
55.8 µM: CAKI-1 renal
50.6 µM: SF-539 CNS
34.4 µM: COLO 205 colon | CCRF-CEM leukemia
50.2 µM: M14 melanoma
82.6 µM: IGROV1 ovarian
40 µM: MOLT-4 leukemia
43.8 µM: DMS 273 small cell lung
61 µM: HOP-62 NSCLC
> 100 µM: HCC-2998 colon | A498 renal | NCI-H226 lung | A549 NSCLC
30.8 µM: DMS 114 small cell lung
57.7 µM: RPMI-8226 leukemia
35.2 µM: NCI-H460 lung
69.9 µM: SK-OV-3 ovarian
45.4 µM: SR leukemia
77.5 µM: TK-10 renal
39.3 µM: LXFL 529 NSCLC
31.6 µM: KM12 colon
67.9 µM: SK-MEL-5 melanoma
41.9 µM: SN12C renal
86.8 µM: RXF-631 renal
29.5 µM: HL-60(TB) leukemia
29.3 µM: K-562 leukemia
31.2 µM: OVCAR-3 ovarian
70.1 µM: KM20L2 colon
63.8 µM: MALME-3M melanoma
51 µM: 786-0 renal
60.3 µM: SNB-19 CNS
37.6 µM: OVCAR-8 ovarian
35.9 µM: UACC-62 melanoma
29.8 µM: HCT-116 colon | RXF 393 renal

O=P(Nc1ccccc1)(Oc1ccccc1)N(CCCl)CCCl (centres undefined)
44.2 µM: SK-OV-3 ovarian
28.2 µM: UO-31 renal
> 100 µM: COLO 205 colon | TK-10 renal | SK-MEL-5 melanoma | HCC-2998 colon | A498 renal | HT29 colon | OVCAR-3 ovarian | SK-MEL-2 melanoma | CAKI-1 renal | SK-MEL-28 melanoma | SF-295 CNS | KM12 colon | SNB-78 CNS | NCI-H226 lung | OVCAR-4 ovarian | UACC-62 melanoma | MOLT-4 leukemia | EKVX NSCLC | UACC-257 melanoma | HOP-62 NSCLC | HL-60(TB) leukemia | SF-268 CNS | MALME-3M melanoma | HCT-116 colon | OVCAR-8 ovarian | NCI-H23 lung | HOP-18 NSCLC | K-562 leukemia | SW-620 colon | ACHN renal | SF-539 CNS | M19-MEL melanoma | CCRF-CEM leukemia | SNB-75 CNS | DMS 273 small cell lung | SN12C renal | IGROV1 ovarian | SR leukemia | U251 CNS | OVCAR-5 ovarian | DLD-1 colon | M14 melanoma | HCT-15 colon | RXF-631 renal | KM20L2 colon | A549 NSCLC | HOP-92 NSCLC | DMS 114 small cell lung
28.8 µM: NCI-H522 lung

COC1CCC(OC)C(C2(C3CC(OC)CCC3OC)OC(=O)c3ccccc32)C1 (centres undefined)
89.3 µM: MOLT-4 leukemia
> 100 µM: COLO 205 colon | TK-10 renal | SK-MEL-5 melanoma | HCC-2998 colon | A498 renal | HT29 colon | OVCAR-3 ovarian | SK-MEL-2 melanoma | CAKI-1 renal | SF-295 CNS | KM12 colon | UO-31 renal | SNB-78 CNS | NCI-H226 lung | OVCAR-4 ovarian | UACC-62 melanoma | NCI-H460 lung | EKVX NSCLC | UACC-257 melanoma | HOP-62 NSCLC | SF-268 CNS | MALME-3M melanoma | HCT-116 colon | SK-OV-3 ovarian | OVCAR-8 ovarian | NCI-H23 lung | HOP-18 NSCLC | K-562 leukemia | SW-620 colon | ACHN renal | 786-0 renal | SF-539 CNS | RPMI-8226 leukemia | SNB-19 CNS | RXF 393 renal | SNB-75 CNS | DMS 273 small cell lung | SN12C renal | XF 498 CNS | IGROV1 ovarian | SR leukemia | U251 CNS | OVCAR-5 ovarian | DLD-1 colon | M14 melanoma | HCT-15 colon | RXF-631 renal | KM20L2 colon | A549 NSCLC | HOP-92 NSCLC | DMS 114 small cell lung
45.1 µM: HL-60(TB) leukemia
52.1 µM: NCI-H522 lung
